In patent publication US20100143440A1, “UL97 INHIBITORS FOR TREATMENT OF PROLIFERATIVE DISORDERS” (The UAB Research Foundation, priority 2007, published 2010):
Like-named read-outs stand apart in the source and are kept apart here.

Assays:
GS strain of HHV-6A = assay: Efficacy against HHV-6A in HSB-2 cells with reduced serum; format: cell-based
Procedure: The activity of MBV was evaluated against the GS strain of HHV-6A in HSB-2 cells with reduced serum to slow the growth of lymphocytes.

pUL97 = target: T1, pUL97 (Human cytomegalovirus, UniProt P16788); assay: Number of PML bodies in COS7 cells expressing pUL97; format: cell-based, HCMV; conditions: FIG. 3F
T1 construct: expressed in transfected cells; host or cells: COS7 cells (transient co-transfection)
Procedure: Indirect immunofluorescence microscopy. Cells expressing proteins from transfected plasmids were visualized by methods published previously (Prichard et al., J. Virol. 79:15494-502 (2005)). Briefly, monolayers of HFF cells were grown on 12 mm diameter coverslips in 24-well plates. Transfected cells were fixed for 15 minutes with freshly prepared 2% formaldehyde in phosphate buffered saline (PBS), washed two times with PBS, and membranes were permeabilized with 0.2% Triton X-100 in PBS for 15 minutes. Monoclonal antibody to the V5 epitope tag was purchased from Invitrogen (Carlsbad, Calif.). Monoclonal antibodies to IE1 (63-27) and ppUL44 (28-21) were generously provided by Bill Britt and were used as culture supernatants with goat anti-mouse secondary antibodies conjugated to FITC or Texas Red (Southern Biotechnology, Birmingham, Ala.).
PML bodies are affected by the kinase. Nuclear aggresomes form in a dynamic microtubule dependent process that initiates with fusion of small aggregations located at or near PML bodies. To determine the effect of pUL97 on these structures, this and other proteins were expressed in COST cells and visualized PML bodies with an antibody to SP100, which is a marker of these domains. […] Their number was also unaffected by the expression of pp71, however it colocalized with these structures and is consistent with previous reports. […]

UL97 kinase = target: T2, UL97 kinase (Human cytomegalovirus, UniProt P16788); assay: UL97 kinase inhibition of pp71 aggregation in cotransfected COS7 cells; format: cell-based, HCMV
T2 construct: expressed in transfected cells; host or cells: COS7 cells (transient co-transfection)

[1] = target: T3, HHV-6B U69 protein kinase (Human herpesvirus 6B, UniProt P52446); assay: Surrogate assay: U69 kinase dependent inhibition of pp65-GFP nuclear aggregation; format: cell-based; conditions: 15 μM MBV, FIG. 8; listed as MBV
T3 construct: expressed in transfected cells
Source text: This assay is similar to that reported previously for UL97 (Prichard, M. N., et al., 2005. Human cytomegalovirus UL97 Kinase is required for the normal intranuclear distribution of pp65 and virion morphogenesis. J Virol 79:15494-502). […] Inhibition of aggregation was kinase dependent since the U69B K219M mutation, which eliminates an essential lysine, is incapable of inhibiting aggregation.

hyperphosphorylated Rb = assay: Western blot of Rb and p53 in HCMV infected HFF cells; format: cell-based, human
Procedure: Polyacrylamide gels and western blotting. HFF cells were infected at a multiplicity of infection of 2 PFU/cell and at 24 and 72 hours following infection they were disrupted in 2× Lamelli buffer (Sigma-Aldrich, St. Louis, Mo.) and separated on 10%, 7.5%, or 5% polyacrylamide gels depending on the size of the protein to be resolved (BioRad, Hercules, Calif.). Separated proteins were transferred to PVDF membranes (Roche Applied Science, Indianapolis, Ind.) in a buffer containing 28 mM Tris, 39 mM glycine, 0.0375% SDS and 20% methanol in a semi dry transfer cell (BioRad, Hercules, Calif.). Membranes were blocked in 1% blocking buffer (Roche Applied Science, Indianapolis, Ind.), incubated with primary antibodies overnight at 4° C. and washed extensively with PBS supplemented with 0.02% tween 20. A secondary antibody conjugated to alkaline phosphatase (Southern Biotechnology Associates, Birmingham, Ala.) and CDP* (Roche Applied Science, Indianapolis, Ind.) were used to detect the bound primary antibody. Monoclonal antibodies used in these studies were directed against PML (H-238) (Santa Cruz Biotechnology, Santa Cruz, Calif.), DAXX (Upstate Cell Signaling Solutions, Tamecula, Calif.), p53, retinoblastoma, β-tubulin, CREB binding protein (CBP) (Chemicon International, Tamecula, Calif.), and both V5 and Xpress (Invitrogen, Carlsbad, Calif.).
UL97 kinase activity is required for the hyperphosphorylation of Rb. […] Proteins in this complex were examined by Western blots using samples derived from HFF cells that were uninfected, infected with AD169 a recombinant virus (RCΔA97) containing a large deletion in UL97 at a multiplicity of infection of 3 PFU/cell. Some of the infections were conducted in the presence of MBV to confirm that the observed changes were due to a deficiency of its kinase activity. […] In cells infected with the wt virus, increases in levels of p53 were observed (FIG. 4 lanes 9-12), but this increase was unaffected by the deletion of the UL97 open reading frame or treatment with maribavir. Also consistent with this previous report was an increase of hyperphosphorylated Rb at both 24 and 72 hours following infection (FIG. 4, lanes 3, 9). […] A previous report has shown that pp71 directs the proteasome dependent degradation of hypophosphorylated Rb, however observations presented here are distinct in that the hyperphosphorylation and stabilization of this form of Rb is inefficient in the absence UL97 kinase activity.

HCMV UL97 kinase = target: T4, HCMV UL97 kinase (Human cytomegalovirus, UniProt P16788); assay: Surrogate assay: UL97 kinase dependent inhibition of pp65-GFP nuclear aggregation; format: cell-based
T4 construct: expressed in transfected cells; host or cells: COS7 cells (transient co-transfection)

HHV-6 = conditions: Williams-Aziz et al. 2005; cited from earlier work

**Q.** With `CC(C)Nc1nc2cc(Cl)c(Cl)cc2n1[C@H]1O[C@@H](CO)[C@H](O)[C@@H]1O` [maribavir] as the compound, how does the EC50 (GS strain of HHV-6A; HSB2, GS strain of HHV-6A, HSB-2 cells, reduced serum, read-out: EC50 values under conditions of reduced serum) read?
**A.** 9 to 30 µM

**Q.** And the EC50 (GS strain of HHV-6A; HSB2, HHV-6A in HSB-2 cells, 2% FBS, read-out: EC50)?
**A.** 30 µM

**Q.** What about the EC50 (GS strain of HHV-6A; HSB2, HHV-6A in HSB-2 cells, 5% FBS, read-out: EC50) of the same compound?
**A.** 9 µM

**Q.** What about the EC50 (GS strain of HHV-6A; HSB2, HHV-6A in HSB-2 cells, 10% FBS, read-out: EC50) of the same compound?
**A.** > 50 µM

**Q.** What about the “Effect on pUL97 reduction of the number of PML bodies” value (pUL97) of the same compound?
**A.** neither the K355M mutant, or pUL97 in the presence of maribavir could affect their numbers

**Q.** And the “Effect on kinase inhibition of pp71 aggregation” value (UL97 kinase)?
**A.** unable to inhibit the aggregation of pp71 in the presence of MBV

**Q.** What about the “Effect on ability of U69 to inhibit pp65-GFP aggregation” value [1] of the same compound?
**A.** reduces the ability of UL97 and U69 to inhibit aggregation

**Q.** And the “Levels of hyperphosphorylated Rb” value (hyperphosphorylated Rb; HFF cells infected with UL97 deletion virus RCΔ97)?
**A.** relatively unaffected

**Q.** What about the “Increase in levels of p53” value (hyperphosphorylated Rb; HFF cells infected with wt virus) of the same compound?
**A.** unaffected

**Q.** What about the “Increase of hyperphosphorylated Rb” value (hyperphosphorylated Rb; HFF cells infected with wt virus AD169, 24 hours post infection) of the same compound?
**A.** did not occur

**Q.** What about the “Levels of hyperphosphorylated Rb” value (hyperphosphorylated Rb; HFF cells infected with wt virus AD169, 72 hours after infection) of the same compound?
**A.** significantly reduced

**Q.** What about the “Hyperphosphorylated forms of Rb” value (hyperphosphorylated Rb; infected cells, 24 and 72 hours, FIG. 4 legend) of the same compound?
**A.** reduced

**Q.** What about the “Effect on ability of UL97 to inhibit pp65-GFP aggregation” value (HCMV UL97 kinase; 15 μM MBV, FIG. 8, listed as MBV) of the same compound?
**A.** reduces the ability of UL97 and U69 to inhibit aggregation

**Q.** And the “Effect on inhibition of pp65 aggregate formation by the kinase” value (HCMV UL97 kinase; COS7 cells co-expressing pp65-GFP and UL97)?
**A.** antagonized

**Q.** And the “Inhibition of HHV-6 replication” value (HHV-6)?
**A.** poor inhibitor
